In patent US11066447B2, “Aureobasidium derivatives and methods of synthesis” (AureoGen Biosciences, Inc., priority 2016, dated 2021):
In brackets after ≈: the same amount, converted by molar mass. Where two headings read alike, the source gives them in different places. Numbered stars: 1 amine (or outer) side, 2 acyl side, 3 side chain; on linkers, the order of the positions; unused ones are H or OH. Square brackets hold non-standard residues; d marks the D form. Peptide text beside a SMILES is read from it. X35 = CN([C@@H](Cc1cccc(-c2ccc(-n3c4ccccc4c4ccccc43)cc2)c1)C(=O)[*:2])[*:1]; X27 = CN([C@@H](Cc1cccc(-c2cccc3ccccc23)c1)C(=O)[*:2])[*:1]; X32 = CN([C@@H](Cc1cccc(-c2cccc(F)c2)c1)C(=O)[*:2])[*:1]; Hmp(2R,3S) = CC[C@H](C)[C@@H](O)C(=O)O; NMeVal(β-OH) = CN[C@H](C(=O)O)C(C)(C)O; NMeV = CN[C@H](C(=O)O)C(C)C

How the values were obtained:
A. fumigatus MMX 5944 = assay: MIC/MEC assay (CLSI microdilution); type: cell-based; conditions: Aspergillus fumigatus, MMX5944, 48 h; for minimal effective concentration: RPMI plus 0.002% Tween-80; for MIC: RPMI plus 0.002% Tween-80, read-out: MIC
Procedure: (§1) Aureobasidin and test compounds (i.e., AbA derivatives of the present invention) were received from Kalexsyn, Inc. (Kalamazoo, Mich.) as powder and were stored at 4° C. until the day of assay. […] amphotericin was obtained from Sigma Aldrich and stored under like conditions. […] Ethanol (95%) was used as a solvent and diluent for all AbA compounds. Amphotericin B was tested from 0.06-64 μg/mL. Amphotericin B (Sigma Aldrich; St. Louis, Mo.; Cat No. A9528-100MG, Lot No. 120M4087) was dissolved and diluted with dimethylsulfoxide (DMSO; Sigma Aldrich; St. Louis, Mo.; Cat No. 472301 Lot No. SHBD2072V).
(§2) The solvents were added to the test agents and the stock solutions stood for approximately 1 hr at room temperature prior to use to auto sterilize. Stock solutions were prepared at 40× the desired top concentration in the test plate.
(§3) All of the test isolates were originally received from either the American Type Culture Collection (ATCC), clinical labs, or directly from Aureogen Biosciences. Organisms stored by Micromyx were cultured on agar medium appropriate to each organism. Colonies were picked by swab from the isolation plates and put into suspension in appropriate broth containing cryoprotectant. The suspensions were aliquoted into cryogenic vials and maintained at −80° C.
(§4) Prior to testing, Candida isolates were streaked from the frozen vials on Sabouraud dextrose agar. The yeast isolates were incubated for 48 hours at 35° C. before use. The fungal isolates were obtained from enumerated fungal stocks previously prepared at Micromyx and stored in phosphate buffered saline at 4° C.
(§5) Test Media. The medium employed for the MIC assay was RPMI-1640 medium from HyClone Laboratories (Logan, Utah; Lot No. AYB60287A). The medium was prepared according to Clinical and Laboratory Standards Institute (CLSI) guidelines (1, 2), and modified to include 0.002% Tween-80. Candida parapsilosis ATCC 22019 (MMX 2323) and Aspergillus fumigatus ATCC MYA-3626 (MMX 5280) were also tested without Tween-80 to provide data for the quality control of amphotericin B in accordance with CLSI (3) and to assess the effect of Tween-80 on the activity of the test agents.
(§6) Test Procedure. The MIC assay method followed the procedure described by CLSI (1, 2) and employed automated liquid handlers to conduct serial dilutions and liquid transfers. Automated liquid handlers included the Multidrop 384 (Labsystems, Helsinki, Finland), Biomek 2000 and Biomek FX (Beckman Coulter, Fullerton Calif.). The wells in columns 2-12 in standard 96-well microdilution plates (Costar 3795) were filled with 150 μl of the appropriate diluent (95% EtOH for investigational compounds, 100% DMSO for amphotericin B). These assay plates would become the ‘mother plates’ from which the assay ‘daughter plates’ would be prepared. The drugs (300 μL at 40× the desired top concentration in the test plates) were dispensed into the appropriate well in Column 1 of the mother plates. The Biomek 2000 was used to make two-fold serial dilutions through Column 11 in the “mother plate”. The wells of Column 12 contained no drug and served as the organism growth control wells.
(§7) The daughter plates were loaded with 185 μL per well on the Multidrop 384 with RPMI plus 0.002% Tween-80 or RPMI containing no Tween-80 for the testing of the two QC isolates. The daughter plates were prepared on the Biomek FX instrument which transferred 5 μL of drug solution from each well of a mother plate to each corresponding well of each daughter plate in a single step.
(§8) A standardized inoculum of each organism was prepared per CLSI methods (1, 2). For the Candida isolates, colonies were picked from the streak plate and a suspension was prepared in RPMI to equal a 0.5 McFarland standard. This suspension was diluted 1:100 in RPMI resulting in a final concentration of approximately 0.5-2.5×10^3 CFU/mL. […]

[1] = system: A. fumigatus MMX 6782 ATCC 13073; assay: MIC/MEC assay (CLSI microdilution); type: cell-based; conditions: Aspergillus fumigatus, ATCC13073, 48 h; for minimal effective concentration: RPMI plus 0.002% Tween-80, read-out: MEC; for MIC: RPMI plus 0.002% Tween-80, read-out: MIC
Procedure: as §1, §2, §3, §4, §5, §6, §7, §8

A. flavus MMX 5948 = assay: MIC/MEC assay (CLSI microdilution); type: cell-based; conditions: Aspergillus flavus, MMX5948, 48 h; for minimal effective concentration: RPMI plus 0.002% Tween-80; for MIC: RPMI plus 0.002% Tween-80, read-out: MIC
Procedure: as §1, §2, §3, §4, §5, §6, §7, §8

[2] = system: A. niger MMX 0624 ATCC 16888; assay: MIC/MEC assay (CLSI microdilution); type: cell-based; conditions: Aspergillus niger, ATCC16888, 48 h; for minimal effective concentration: RPMI plus 0.002% Tween-80, read-out: MEC; for MIC: RPMI plus 0.002% Tween-80, read-out: MIC
Procedure: as §1, §2, §3, §4, §5, §6, §7, §8

[3] = system: A. fumigatus MMX 6781 ATCC MYA-4609; assay: MIC/MEC assay (CLSI microdilution); type: cell-based; conditions: Aspergillus fumigatus; for MIC: 48 h, RPMI plus 0.002% Tween-80, read-out: MIC; for minimal effective concentration: RPMI plus 0.002% Tween-80, 48 hr
Procedure: as §1, §2, §3, §4, §5, §6, §7, §8

[4] = system: C. albicans MMX 2000 ATCC 10231; assay: MIC assay (CLSI microdilution); type: cell-based; conditions: Candida albicans, ATCC10231, RPMI plus 0.002% Tween-80; read-out: MIC
Procedure: as §1, §2, §3, §4, §5, §6, §7, §8

[5] = system: C. neoformans MMX 0634 ATCC 90112; assay: MIC assay (CLSI microdilution); type: cell-based; conditions: Cryptococcus neoformans, ATCC90112, RPMI plus 0.002% Tween-80; read-out: MIC
Procedure: as §1, §2, §3, §4, §5, §6, §7, §8

[6] = system: C. parapsilosis MMX 2323 ATCC 22019; assay: MIC assay (CLSI microdilution); type: cell-based, Candida parapsilosis; conditions: read-out: MIC
Procedure: as §1, §2, §3, §4, §5, §6, §7, §8

[7] = system: A. fumigatus MMX 5280 ATCC MYA-3626; assay: MIC/MEC assay (CLSI microdilution); type: cell-based, Aspergillus fumigatus; conditions: Aspergillus fumigatus, 48 h
Procedure: as §1, §2, §3, §4, §5, §6, §7, §8

[8] = ATCC22019, RPMI plus 0.002% Tween-80
[9] = RPMI plus 0.002% Tween-80, read-out: MEC
[10] = RPMI plus 0.002% Tween-80, read-out: MIC
[11] = Without Tween-80, read-out: MEC
[12] = Without Tween-80, read-out: MIC

MIC (A. fumigatus MMX 5944) [µg/mL]	MIC [1] [µg/mL]	MIC (A. flavus MMX 5948) [µg/mL]	MIC [2] [µg/mL]	MIC [3] [µg/mL]	MIC [4] [µg/mL]	MIC [5] [µg/mL]	MIC [6, 8] [µg/mL]	MIC ([6]; ATCC22019, Without Tween-80) [µg/mL]	MIC [7, 10] [µg/mL]	MIC [7, 12] [µg/mL]	Compound	minimal effective concentration (A. fumigatus MMX 5944) [µg/mL]	minimal effective concentration [1] [µg/mL]	minimal effective concentration (A. flavus MMX 5948) [µg/mL]	minimal effective concentration [2] [µg/mL]	minimal effective concentration [3] [µg/mL]	minimal effective concentration [7, 9] [µg/mL]	minimal effective concentration [7, 11] [µg/mL]
> 64	> 64	> 64	0.25	> 64	0.015	0.12	0.12	1 (≈ 0.836 µM)	> 64	> 64	CC[C@H](C)[C@@H]1NC(=O)[C@@H]2CCCN2C(=O)[C@H](Cc2cccc(-c3cccc(F)c3)c2)N(C)C(=O)[C@H](Cc2ccccc2)NC(=O)[C@H](C(C)C)N(C)C(=O)[C@@H]([C@@H](C)CC)OC(=O)[C@H](C(C)(C)O)N(C)C(=O)[C@H](CC(C)C)NC(=O)[C@H](C(C)C)N(C)C1=O [Compound 7] (cyclo(F[X32]PI[NMeV]L[NMeVal(β-OH)][Hmp(2R,3S)][NMeV]))	0.5	0.5	> 64	0.25	1	2	64
> 64	> 64	> 64	> 64	> 64	> 64	> 64	> 64	> 64	> 64	> 64	CC[C@H](C)[C@@H]1NC(=O)[C@@H]2CCCN2C(=O)[C@H](Cc2cccc(-c3ccc(-n4c5ccccc5c5ccccc54)cc3)c2)N(C)C(=O)[C@H](Cc2ccccc2)NC(=O)[C@H](C(C)C)N(C)C(=O)[C@@H]([C@@H](C)CC)OC(=O)[C@H](C(C)(C)O)N(C)C(=O)[C@H](CC(C)C)NC(=O)[C@H](C(C)C)N(C)C1=O [Compound 8] (cyclo(F[X35]PI[NMeV]L[NMeVal(β-OH)][Hmp(2R,3S)][NMeV]))	> 64	> 64	> 64	> 64	> 64	> 64	> 64
> 64	> 64	> 64	0.25	> 64	0.12	0.12	0.25	1 (≈ 0.815 µM)	> 64	> 64	CC[C@H](C)[C@@H]1NC(=O)[C@@H]2CCCN2C(=O)[C@H](Cc2cccc(-c3cccc4ccccc34)c2)N(C)C(=O)[C@H](Cc2ccccc2)NC(=O)[C@H](C(C)C)N(C)C(=O)[C@@H]([C@@H](C)CC)OC(=O)[C@H](C(C)(C)O)N(C)C(=O)[C@H](CC(C)C)NC(=O)[C@H](C(C)C)N(C)C1=O [Compound 9] (cyclo(F[X27]PI[NMeV]L[NMeVal(β-OH)][Hmp(2R,3S)][NMeV]))	> 64	1	> 64	0.25	1	> 64	> 64
